Measured values: patent publication US11547697B2, “Heterocyclic compounds and uses thereof” (MILLENNIUM PHARMACEUTICALS, INC., priority 2009, dated 2023)
Read-outs that look alike come from different tables or passages of the source.

Key:
Format in all cases: biochemical
p110α/p85α = p110α/p85α (Homo sapiens (Human), UniProt P42336); assay: PI 3-Kinase (human) HTRF assay, p110α/p85α
p110β/p85α = p110β/p85α (Homo sapiens (Human), UniProt P42338); assay: PI 3-Kinase (human) HTRF assay, p110β/p85α
Chain of p110β/p85α (P42338 whole entry): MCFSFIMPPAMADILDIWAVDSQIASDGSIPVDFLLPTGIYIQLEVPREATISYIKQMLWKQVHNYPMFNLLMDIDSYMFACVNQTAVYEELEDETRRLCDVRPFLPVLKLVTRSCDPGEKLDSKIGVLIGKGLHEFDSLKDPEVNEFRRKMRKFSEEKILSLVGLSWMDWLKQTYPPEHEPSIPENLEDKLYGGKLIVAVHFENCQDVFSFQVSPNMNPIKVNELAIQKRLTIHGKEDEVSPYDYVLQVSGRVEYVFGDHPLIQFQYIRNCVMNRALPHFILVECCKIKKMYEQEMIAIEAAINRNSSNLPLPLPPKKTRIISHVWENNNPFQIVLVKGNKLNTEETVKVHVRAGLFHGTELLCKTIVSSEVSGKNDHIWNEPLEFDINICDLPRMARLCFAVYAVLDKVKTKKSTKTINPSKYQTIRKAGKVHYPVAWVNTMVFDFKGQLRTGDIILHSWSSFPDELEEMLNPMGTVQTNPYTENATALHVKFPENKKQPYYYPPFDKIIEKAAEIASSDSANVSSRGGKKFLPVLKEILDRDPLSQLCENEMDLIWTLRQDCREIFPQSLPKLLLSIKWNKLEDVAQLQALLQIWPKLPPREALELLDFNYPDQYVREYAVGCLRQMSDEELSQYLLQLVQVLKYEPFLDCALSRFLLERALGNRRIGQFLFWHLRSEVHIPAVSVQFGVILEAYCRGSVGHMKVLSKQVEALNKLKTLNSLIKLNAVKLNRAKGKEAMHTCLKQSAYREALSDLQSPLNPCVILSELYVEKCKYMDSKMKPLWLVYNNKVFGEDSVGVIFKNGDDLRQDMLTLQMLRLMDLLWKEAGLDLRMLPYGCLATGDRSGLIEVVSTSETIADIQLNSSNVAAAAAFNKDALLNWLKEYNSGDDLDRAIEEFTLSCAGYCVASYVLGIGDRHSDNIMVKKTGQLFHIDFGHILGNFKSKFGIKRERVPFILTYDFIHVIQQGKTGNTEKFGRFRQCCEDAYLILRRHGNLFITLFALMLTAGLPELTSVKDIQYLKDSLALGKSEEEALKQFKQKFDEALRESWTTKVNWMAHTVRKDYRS
Chain of p110β/p85α (P27986 whole entry partner): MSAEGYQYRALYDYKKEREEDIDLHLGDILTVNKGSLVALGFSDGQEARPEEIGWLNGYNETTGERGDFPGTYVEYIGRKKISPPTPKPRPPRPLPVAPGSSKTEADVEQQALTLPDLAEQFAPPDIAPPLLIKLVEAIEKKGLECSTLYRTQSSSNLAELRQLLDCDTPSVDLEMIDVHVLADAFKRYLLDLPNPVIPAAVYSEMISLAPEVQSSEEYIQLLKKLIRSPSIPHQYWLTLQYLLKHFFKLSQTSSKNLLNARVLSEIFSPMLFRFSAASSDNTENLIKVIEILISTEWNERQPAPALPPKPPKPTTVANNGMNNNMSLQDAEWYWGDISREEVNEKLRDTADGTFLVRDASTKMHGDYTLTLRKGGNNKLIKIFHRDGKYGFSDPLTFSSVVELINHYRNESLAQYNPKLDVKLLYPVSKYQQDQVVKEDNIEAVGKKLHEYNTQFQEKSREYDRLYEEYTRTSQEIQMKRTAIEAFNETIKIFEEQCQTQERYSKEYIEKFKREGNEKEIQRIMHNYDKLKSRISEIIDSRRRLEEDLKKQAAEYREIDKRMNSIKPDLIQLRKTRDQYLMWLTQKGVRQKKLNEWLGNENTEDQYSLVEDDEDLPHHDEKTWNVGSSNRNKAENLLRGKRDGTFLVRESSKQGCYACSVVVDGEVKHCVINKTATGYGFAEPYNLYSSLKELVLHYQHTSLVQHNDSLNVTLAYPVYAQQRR

p110δ/p85α = p110δ/p85α (Homo sapiens (Human), UniProt O00329); assay: PI 3-Kinase (human) HTRF assay, p110δ/p85α
Chain of p110δ/p85α (O00329 whole entry): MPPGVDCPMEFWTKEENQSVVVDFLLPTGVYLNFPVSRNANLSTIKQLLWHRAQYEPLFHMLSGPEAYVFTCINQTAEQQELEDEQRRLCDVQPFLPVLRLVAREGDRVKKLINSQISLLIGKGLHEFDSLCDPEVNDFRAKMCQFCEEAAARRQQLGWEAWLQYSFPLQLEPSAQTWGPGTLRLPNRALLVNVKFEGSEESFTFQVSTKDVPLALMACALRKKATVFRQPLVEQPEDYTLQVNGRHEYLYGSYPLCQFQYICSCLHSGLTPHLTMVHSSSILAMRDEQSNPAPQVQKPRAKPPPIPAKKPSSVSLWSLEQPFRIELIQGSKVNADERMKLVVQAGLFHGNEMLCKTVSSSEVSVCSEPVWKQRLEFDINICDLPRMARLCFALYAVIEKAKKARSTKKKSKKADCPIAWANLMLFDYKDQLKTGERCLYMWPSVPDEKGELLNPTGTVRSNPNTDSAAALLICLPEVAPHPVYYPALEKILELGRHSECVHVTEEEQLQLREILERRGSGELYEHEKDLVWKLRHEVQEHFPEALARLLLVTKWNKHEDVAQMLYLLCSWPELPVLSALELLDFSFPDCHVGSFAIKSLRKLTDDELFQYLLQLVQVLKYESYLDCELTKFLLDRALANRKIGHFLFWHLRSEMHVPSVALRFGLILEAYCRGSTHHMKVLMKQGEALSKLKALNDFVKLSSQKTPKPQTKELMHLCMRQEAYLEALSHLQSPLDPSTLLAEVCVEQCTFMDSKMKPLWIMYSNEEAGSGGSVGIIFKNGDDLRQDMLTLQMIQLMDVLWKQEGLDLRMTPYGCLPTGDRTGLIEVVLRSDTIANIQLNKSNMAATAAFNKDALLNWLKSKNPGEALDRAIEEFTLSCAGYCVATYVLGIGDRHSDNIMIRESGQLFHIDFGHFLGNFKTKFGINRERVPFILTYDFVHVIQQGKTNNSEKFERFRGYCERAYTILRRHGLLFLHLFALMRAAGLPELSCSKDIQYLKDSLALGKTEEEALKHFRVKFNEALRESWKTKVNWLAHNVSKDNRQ
Chain of p110δ/p85α (P27986 whole entry partner): as the sequence (P27986 whole entry partner) above

p110γ = p110γ (Homo sapiens (Human), UniProt P48736); assay: PI 3-Kinase (human) HTRF assay, p110γ
Chain of p110γ (P48736 whole entry): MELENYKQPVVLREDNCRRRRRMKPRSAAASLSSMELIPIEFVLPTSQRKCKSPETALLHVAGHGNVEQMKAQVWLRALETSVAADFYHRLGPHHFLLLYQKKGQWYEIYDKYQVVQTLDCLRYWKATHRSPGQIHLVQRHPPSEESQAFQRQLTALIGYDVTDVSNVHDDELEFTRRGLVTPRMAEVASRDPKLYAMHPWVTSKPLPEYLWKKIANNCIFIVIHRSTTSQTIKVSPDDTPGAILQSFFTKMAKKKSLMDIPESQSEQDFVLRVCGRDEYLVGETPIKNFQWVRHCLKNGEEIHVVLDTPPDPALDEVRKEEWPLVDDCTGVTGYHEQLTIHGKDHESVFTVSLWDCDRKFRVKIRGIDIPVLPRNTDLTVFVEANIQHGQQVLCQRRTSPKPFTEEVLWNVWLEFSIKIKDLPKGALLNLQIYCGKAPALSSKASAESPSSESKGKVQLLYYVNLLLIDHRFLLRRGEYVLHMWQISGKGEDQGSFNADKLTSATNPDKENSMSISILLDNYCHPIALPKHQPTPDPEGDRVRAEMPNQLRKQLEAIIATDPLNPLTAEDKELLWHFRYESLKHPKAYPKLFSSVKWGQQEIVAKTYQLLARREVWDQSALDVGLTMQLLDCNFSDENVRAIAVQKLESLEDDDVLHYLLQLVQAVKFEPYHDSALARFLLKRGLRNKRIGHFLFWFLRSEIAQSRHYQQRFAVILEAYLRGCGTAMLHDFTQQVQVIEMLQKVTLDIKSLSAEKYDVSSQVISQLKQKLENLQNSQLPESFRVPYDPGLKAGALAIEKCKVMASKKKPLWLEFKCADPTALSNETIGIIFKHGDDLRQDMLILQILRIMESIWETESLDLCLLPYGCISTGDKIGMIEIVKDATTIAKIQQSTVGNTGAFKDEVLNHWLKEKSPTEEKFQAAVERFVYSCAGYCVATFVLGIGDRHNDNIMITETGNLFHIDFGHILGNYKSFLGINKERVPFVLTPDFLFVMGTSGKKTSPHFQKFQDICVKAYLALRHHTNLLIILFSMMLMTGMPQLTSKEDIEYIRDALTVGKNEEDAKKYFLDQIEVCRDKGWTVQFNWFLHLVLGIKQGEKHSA

[1] = in vitro, read-out: PI3K α IC50
[2] = in vitro, read-out: PI3K β IC50
[3] = in vitro, read-out: PI3K δ IC50
[4] = in vitro, read-out: PI3K γ IC50

Chain of p110α/p85α (P42336 whole entry): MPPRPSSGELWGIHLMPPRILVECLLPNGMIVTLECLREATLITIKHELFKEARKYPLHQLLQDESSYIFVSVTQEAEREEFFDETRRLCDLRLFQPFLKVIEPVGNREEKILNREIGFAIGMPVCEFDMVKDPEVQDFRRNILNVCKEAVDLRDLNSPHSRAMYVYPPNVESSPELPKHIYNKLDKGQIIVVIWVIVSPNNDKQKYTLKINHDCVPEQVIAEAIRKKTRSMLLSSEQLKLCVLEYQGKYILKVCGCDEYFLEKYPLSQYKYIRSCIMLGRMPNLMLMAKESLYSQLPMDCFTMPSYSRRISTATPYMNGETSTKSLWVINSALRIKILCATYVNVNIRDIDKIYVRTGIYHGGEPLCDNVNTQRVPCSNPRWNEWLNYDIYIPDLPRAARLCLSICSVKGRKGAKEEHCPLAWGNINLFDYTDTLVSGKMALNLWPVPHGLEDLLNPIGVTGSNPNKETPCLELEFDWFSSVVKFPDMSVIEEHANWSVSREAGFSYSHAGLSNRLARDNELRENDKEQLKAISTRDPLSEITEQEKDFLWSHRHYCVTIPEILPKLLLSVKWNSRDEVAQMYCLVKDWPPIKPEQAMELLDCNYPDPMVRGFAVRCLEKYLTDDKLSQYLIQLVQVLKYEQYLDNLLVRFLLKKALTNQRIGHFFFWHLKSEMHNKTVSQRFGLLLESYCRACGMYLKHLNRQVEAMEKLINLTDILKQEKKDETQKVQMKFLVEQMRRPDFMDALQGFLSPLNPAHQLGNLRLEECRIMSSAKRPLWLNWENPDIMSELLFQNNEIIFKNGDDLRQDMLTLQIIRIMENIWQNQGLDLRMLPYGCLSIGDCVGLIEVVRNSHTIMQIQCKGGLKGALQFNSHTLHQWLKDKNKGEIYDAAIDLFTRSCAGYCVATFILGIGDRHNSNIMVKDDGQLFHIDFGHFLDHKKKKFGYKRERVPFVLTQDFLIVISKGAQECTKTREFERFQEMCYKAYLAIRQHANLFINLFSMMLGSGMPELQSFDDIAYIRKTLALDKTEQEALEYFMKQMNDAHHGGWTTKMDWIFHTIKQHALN
Chain of p110α/p85α (P27986 whole entry partner): as the sequence (P27986 whole entry partner) above

SMILES	IC50 (p110α/p85α; read-out: PI3K α IC50) [nM]	IC50 (p110β/p85α; read-out: PI3K β IC50) [nM]	IC50 (p110δ/p85α; read-out: PI3K δ IC50) [nM]	IC50 (p110γ; read-out: PI3K γ IC50) [nM]	IC50 (p110α/p85α; [1]) [nM]	IC50 (p110β/p85α; [2]) [nM]	IC50 (p110δ/p85α; [3]) [nM]	IC50 (p110γ; [4]) [nM]	also measured
CN1CCC(Nc2cnc3ccc(-c4ccc5oc(N)nc5c4)cc3n2)CC1 [compound 81]	< 100	< 1000	< 100	< 1000					
COc1ncc(-c2ccc3ncn(C4CCN(C)CC4)c(=O)c3c2)cc1NS(C)(=O)=O [compound 525]									IC50 (p110α/p85α; read-out: PI3K α In Vitro IC50): < 100 nM; IC50 (p110β/p85α; read-out: PI3K β In Vitro IC50): < 1000 nM; IC50 (p110δ/p85α; read-out: PI3K δ In Vitro IC50): < 100 nM; IC50 (p110γ; read-out: PI3K γ In Vitro IC50): < 10000 nM
CC(C)(C)N1CCN(C(=O)c2cnc3ccc(-c4ccc5oc(N)nc5c4)cn23)CC1 [compound 191]	< 100	< 10000	< 10000	< 10000					
CS(=O)(=O)N1CCC(Nc2ncnc3ccc(-c4ccc5oc(N)nc5c4)cc23)CC1 [compound 87]	< 100	< 1000	< 100	< 100					
CN(C)C1CCN(c2cnc3ccc(-c4ccc5oc(N)nc5c4)cc3n2)CC1 [compound 172]	< 100	< 100	< 100	< 1000					
CC(=O)Nc1nc2cc(-c3ccc4nc(N)oc4c3)ccc2s1 [compound 251]					< 100	< 100	< 100	< 100	
Nc1nc2cc(-c3ccc4ncc(C(=O)N5CCN(CC6CC6)CC5)n4c3)ccc2o1 [compound 161]	< 1000	< 10000	< 10000	< 10000					
CC(=O)Nc1nc2ccc(-c3cc(F)c4oc(N)nc4c3)cc2s1 [compound 434]									IC50 (p110α/p85α; read-out: PI3K α In Vitro IC50): < 100 nM; IC50 (p110β/p85α; read-out: PI3K β In Vitro IC50): < 100 nM; IC50 (p110δ/p85α; read-out: PI3K δ In Vitro IC50): < 100 nM; IC50 (p110γ; read-out: PI3K γ In Vitro IC50): < 100 nM
Nc1nc2cc(-c3ccc4ncc(NCCN5CCCC5)nc4c3)ccc2o1 [compound 219]					< 1000	< 1000	< 1000	< 1000	
Cc1cn(C2CN(c3cnc4ccc(-c5ccc6oc(N)nc6c5)cc4n3)C2)cn1 [compound 339]					< 100	< 1000	< 1000	< 1000	
Nc1nc2cc(-c3ccc4ncc(N5CC(C(=O)NC6CC6)C5)nc4c3)ccc2o1 [compound 215]					< 100	< 1000	< 10000	< 1000	
C[C@H]1CN(C2CN(c3cnc4ccc(-c5ccc6oc(N)nc6c5)cc4n3)C2)CCN1 [compound 350]					< 100	< 10000	< 10000		
Nc1nc2cc(-c3ccc4ncc(NCCCN5CCOCC5)nc4c3)ccc2o1 [compound 222]					< 100	< 1000	< 100	< 1000	
CC(=O)Nc1nc(C)c(-c2ccc3oc(N)nc3c2)s1 [compound 312]					< 1000	< 10000	< 1000	< 100	
CCN(CC)CCNc1cnc2ccc(-c3ccc4oc(N)nc4c3)cc2n1 [compound 218]					< 1000	< 1000	< 1000	< 10000	
Nc1nc2cc(-c3ccc4ncc(NCCCN5CCCC5)nc4c3)ccc2o1 [compound 221]					< 100	< 1000	< 100	< 100	
COc1nc(-c2ccc3oc(N)nc3c2)cnc1N [compound 238]					< 1000	< 1000	< 10000	< 1000	
Nc1nc2cc(-c3ccc4ncn(CCCN5CCCC5)c(=O)c4c3)ccc2o1 [compound 271]					< 1000	< 10000	< 10000		
CN1CC(C(=O)N2CCC(Nc3ncnc4ccc(-c5ccc6oc(N)nc6c5)cc34)CC2)C1 [compound 138]	< 100	< 1000	< 100	< 1000					
Nc1nc2cc(-c3ccc4ncc(N5CC[C@@H](N6CCOCC6)C5)nc4c3)ccc2o1 [compound 376]					< 100	< 10000	< 10000	< 100	
Nc1nc2cc(-c3ccc4ncc(C(=O)NCCN5CCCC5)n4c3)ccc2o1 [compound 296]					< 1000	< 10000	< 1000		
Nc1nc2cc(-c3ccc4ncc(N5CC(N6CCNC(=O)C6)C5)nc4c3)ccc2o1 [compound 325]					< 100	< 1000	< 10000	< 100	
Nc1nc2cc(-c3ccc4ncc(N5CC(N6CCOCC6)C5)nc4c3)c(F)cc2o1 [compound 373]					< 100	< 10000	< 10000	< 10000	
CN1CCN(c2ccnc3ccc(-c4ccc5oc(N)nc5c4)cc23)CC1 [compound 21]	< 1000	< 10000	< 10000	< 10000					
Nc1nc2cc(-c3ccc4ncnc(NC5CCN(C(=O)C6CC6)CC5)c4c3)ccc2o1 [compound 89]	< 100	< 10000	< 100	< 100					
